Results taken from paper PMC8406200, “SAMase of Bacteriophage T3 Inactivates Escherichia coli’s Methionine S-Adenosyltransferase by Forming Heteropolymers” (mBio, 2021).

B1: S-Adenosylmethionine lyase (SAMase) of bacteriophage T3, C-terminal His-tagged (enzyme)
chain: MIFTKEPAHVFYVLVSAFRSNLCDEVNMSRHRHMVSTLRAAPGLYGSVESTDLTGCYREAISSAPTEEKTVRVRCKDKAQALNVARLACNEWEQDCVLVYKSQTHTAGLVYAKGIDGYKAERLPGSFQEVPKGAPLQGCFTIDEFGRRWQVQ
notes: S-adenosylmethionine lyase (SAMase) of bacteriophage T3, UniProt P07693; gene synthesized de novo with six His codons at the 3' end; anticipated monomer size around 17 kDa; Dimer by SEC, cross-linking and cryo-EM; also called T3 SAMase; 6×His-tagged SAMase; not shown: His6, C-terminal, kept
B2: E. coli methionine S-adenosyltransferase (MAT), recombinant, C-terminal His6 (enzyme, E. coli MG1655, UniProt P0A817 1-384, looked up)
chain: MAKHLFTSESVSEGHPDKIADQISDAVLDAILEQDPKARVACETYVKTGMVLVGGEITTSAWVDIEEITRNTVREIGYVHSDMGFDANSCAVLSAIGKQSPDINQGVDRADPLEQGAGDQGLMFGYATNETDVLMPAPITYAHRLVQRQAEVRKNGTLPWLRPDAKSQVTFQYDDGKIVGIDAVVLSTQHSEEIDQKSLQEAVMEEIIKPILPAEWLTSATKFFINPTGRFVIGGPMGDCGLTGRKIIVDTYGGMARHGGGAFSGKDPSKVDRSAAYAARYVAKNIVAAGLADRCEIQVSYAIGVAEPTSIMVETFGTEKVPSEQLTLLVREFFDLRPYGLIQMLDLLHPIYKETAAYGHFGREHFPWEKTDKAQLLRDAAGLK
notes: Homotetramer (dimer of dimers); also called EcMAT; E. coli MAT; source: E. coli BL21(DE3) (pET24a), purified (Ni-NTA, SEC)

Legend:
E. coli MAT (EcMAT) [1] = target: T1, E. coli MAT (EcMAT) (Escherichia coli, UniProt P0A817, D132P/V133T/I178V/I211V/A214P, form not given); assay: HPLC (SCX, […] nm) of SAM / MTA formation; type: biochemical; conditions: mutant EcMAT; methionine as co-substrate; pH 7.5, 10 mM MgCl2, 37°C; W26L as printed (position doubtful, probably W216L)
T1 construct: gene metK; C-terminal His6 tag, full length, pET24a, BL21(DE3); homotetramer (dimer of dimers), ~43 kDa subunit
T1 sequence (P0A817 2-384 D132P/V133T/I178V/I211V/A214P, form open): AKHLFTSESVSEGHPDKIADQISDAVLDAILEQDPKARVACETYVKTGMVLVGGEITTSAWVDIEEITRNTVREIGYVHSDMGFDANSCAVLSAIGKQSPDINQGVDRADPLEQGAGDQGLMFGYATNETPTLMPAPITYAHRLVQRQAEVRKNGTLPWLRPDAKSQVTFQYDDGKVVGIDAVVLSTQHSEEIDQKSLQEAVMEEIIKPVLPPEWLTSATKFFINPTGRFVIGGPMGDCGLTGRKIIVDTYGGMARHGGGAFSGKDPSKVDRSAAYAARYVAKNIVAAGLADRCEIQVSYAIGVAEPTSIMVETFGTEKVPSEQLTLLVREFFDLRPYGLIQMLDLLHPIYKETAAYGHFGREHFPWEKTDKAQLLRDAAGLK

E. coli MAT (EcMAT) [2] = target: T2, E. coli MAT (EcMAT) (Escherichia coli, UniProt P0A817); assay: HPLC (SCX, […] nm) of SAM formation; type: biochemical; conditions: 80 μM ATP, 1 mM methionine, 250 nM enzyme; 25 mM HEPES pH 7.5, 100 mM KCl, 10 mM MgCl2, 1 mM DTT; 37°C; no SAMase
T2 construct: gene metK; C-terminal His6 tag, full length, pET24a, BL21(DE3); homotetramer (dimer of dimers), ~43 kDa subunit
T2 sequence (P0A817 2-384): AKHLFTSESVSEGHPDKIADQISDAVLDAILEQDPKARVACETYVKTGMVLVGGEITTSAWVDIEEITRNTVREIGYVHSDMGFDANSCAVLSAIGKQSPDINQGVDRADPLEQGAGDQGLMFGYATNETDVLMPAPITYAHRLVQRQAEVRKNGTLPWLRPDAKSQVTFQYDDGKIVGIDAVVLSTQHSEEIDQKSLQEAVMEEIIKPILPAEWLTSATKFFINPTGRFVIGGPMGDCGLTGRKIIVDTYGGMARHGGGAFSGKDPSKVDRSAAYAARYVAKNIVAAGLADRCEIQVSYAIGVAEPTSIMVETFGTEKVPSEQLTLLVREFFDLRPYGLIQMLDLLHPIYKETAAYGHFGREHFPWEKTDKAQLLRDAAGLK

N. gonorrhea MAT (NgMAT) = target: T3, N. gonorrhea MAT (NgMAT) (Neisseria gonorrhoeae, UniProt Q5FAC0); assay: HPLC (SCX, […] nm) of SAM / MTA formation; type: biochemical; conditions: 80 μM ATP, 1 mM methionine, 250 nM enzyme; pH 7.5, 10 mM MgCl2, 37°C
T3 construct: gene metK
T3 sequence (Q5FAC0 1-389): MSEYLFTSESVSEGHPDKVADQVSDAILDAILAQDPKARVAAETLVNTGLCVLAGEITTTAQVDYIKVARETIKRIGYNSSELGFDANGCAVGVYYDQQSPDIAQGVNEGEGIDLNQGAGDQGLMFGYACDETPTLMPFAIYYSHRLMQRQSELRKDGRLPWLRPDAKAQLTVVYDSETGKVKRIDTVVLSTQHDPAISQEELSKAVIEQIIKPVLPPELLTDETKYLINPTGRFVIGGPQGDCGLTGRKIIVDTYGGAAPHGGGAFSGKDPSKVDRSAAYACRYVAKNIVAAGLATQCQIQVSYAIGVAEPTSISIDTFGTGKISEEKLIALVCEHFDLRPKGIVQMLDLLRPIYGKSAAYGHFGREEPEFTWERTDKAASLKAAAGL

[3] = target: T4, U. urealyticum MAT (UuMAT) (Ureaplasma urealyticum, UniProt A0ABM9XK24); assay: HPLC (SCX, […] nm) of SAM / MTA formation; type: biochemical; conditions: 80 μM ATP, 1 mM methionine, 250 nM enzyme; pH 7.5, 10 mM MgCl2, 37°C
T4 construct: gene metK
T4 sequence (A0ABM9XK24 1-376): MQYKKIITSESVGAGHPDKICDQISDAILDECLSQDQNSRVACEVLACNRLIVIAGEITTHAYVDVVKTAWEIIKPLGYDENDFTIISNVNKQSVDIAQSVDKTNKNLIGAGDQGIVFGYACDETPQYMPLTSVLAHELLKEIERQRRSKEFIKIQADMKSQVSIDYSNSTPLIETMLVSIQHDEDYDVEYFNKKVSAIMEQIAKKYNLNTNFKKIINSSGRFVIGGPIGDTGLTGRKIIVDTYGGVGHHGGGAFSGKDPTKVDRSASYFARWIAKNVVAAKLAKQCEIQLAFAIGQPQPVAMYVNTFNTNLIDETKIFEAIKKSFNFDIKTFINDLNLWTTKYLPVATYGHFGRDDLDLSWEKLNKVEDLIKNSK

[4] = target: the molecule itself; assay: SEC; SAMase alone on Superdex 200 Increase 10/300 GL against protein standards; natively purified and refolded SAMase; 25 mM Tris pH 8.0, 150 mM KCl, 1 mM DTT
[5] = target: B2; assay: cryo-EM structure; refolded SAMase and E. coli MAT mixed 1:1 (160 μM monomer each) with 500 μM SAM, preincubated 48 h, high-molecular-weight SEC peak; single-particle, no symmetry imposed (C1); conditions: both partners purified
[6] = target: the molecule itself; assay: as above

Row | Molecule | HPLC (SCX, 254 nm) of SAM / MTA formation (E. coli MAT (EcMAT) [1]) | HPLC (SCX, 254 nm) of SAM formation (E. coli MAT (EcMAT) [2]) | HPLC (SCX, 254 nm) of SAM / MTA formation (N. gonorrhea MAT (NgMAT)) | HPLC (SCX, 254 nm) of SAM / MTA formation [3] | stoichiometry N [4] | binding result [5] | stoichiometry N [6]
1 | Nc1ncnc2c1ncn2[C@@H]1O[C@H](COP(=O)(O)OP(=O)(O)OP(=O)(O)O)[C@@H](O)[C@H]1O [ATP] | mutant E. coli MAT (EcMAT mut) was measured either alone (blue trace, rate of SAM production | Synthesis of SAM from ATP and methionine by E. coli MAT was conducted in the absence | Synthesis of SAM from ATP and methionine of MAT proteins was conducted | Synthesis of SAM from ATP and methionine of MAT proteins was conducted | – | – | –
2 | CSCC[C@H](N)C(=O)O [methionine] | – | Synthesis of SAM from ATP and methionine by E. coli MAT was conducted in the absence | Synthesis of SAM from ATP and methionine of MAT proteins was conducted | Synthesis of SAM from ATP and methionine of MAT proteins was conducted | – | – | –
3 | B1 | – | – | – | – | 2 | binds | –
4 | B2 | – | – | – | – | – | – | 4
